# Literature values, collected in patent US20020099100A1, “Treatment of dry eye syndrome” (priority 2000, published 2002).
# Test system: dry eye syndrome
# Conditions: in vivo
substance,measurement,value
Vitamin A,Underlying cellular changes that lead to dry eye syndrome,reverse many of the underlying cellular changes
